Test systems include K-562 leukemia; NCI-H460 lung; OVCAR-3 ovarian; OVCAR-4 ovarian; OVCAR-8 ovarian; TK-10 renal; UACC-62 melanoma; MDA-MB-231 breast; PC-3 prostate.
Common to all, as to assay: NCI-60 cell line screen, 48 h

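Tested at 5 concentrations; 48 h exposure; 96-well plates; endpoints linearly interpolated, else capped at highest concentration. The concentration for 50% growth inhibition is given as GI50. The concentration for full growth arrest is given as TGI.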 Bounds are passed on as bounds.

Take `NC(CCCNCc1ccccc1O)C(=O)O` (configuration not stated): the TGI in the assay on K-562 leukemia, in the assay on NCI-H460 lung, with OVCAR-3 ovarian, with OVCAR-4 ovarian, in the assay on OVCAR-8 ovarian and with TK-10 renal was more than 100 µM each time. This molecule had a TGI in the assay on UACC-62 melanoma of more than 100 µM.

On to `O=c1[nH]c(C2CCCCC2)nc2cc(Cl)ccc12`, for which the TGI in the assay with K-562 leukemia, with OVCAR-3 ovarian, in the assay with OVCAR-4 ovarian, in the assay with OVCAR-8 ovarian, with TK-10 renal and with UACC-62 melanoma was more than 100 µM each time.

For `CC(=O)O[C@@H]1CC(=O)O[C@@H]2C[C@@H](CC/C(Cl)=C/C/C=C\1C)O[C@@H]2CO`, the GI50 with K-562 leukemia, in the assay with MDA-MB-231 breast, in the assay on NCI-H460 lung, in the assay with OVCAR-8 ovarian, in the assay on PC-3 prostate and in the assay with TK-10 renal was more than 25 µM each time. In addition, the GI50 in the assay with UACC-62 melanoma was more than 25 µM. Moreover, the TGI was more than 25 µM in the assay on K-562 leukemia; more than 25 µM with MDA-MB-231 breast; more than 25 µM in the assay on NCI-H460 lung; more than 10.6 µM in the assay on OVCAR-3 ovarian; more than 25 µM in the assay with OVCAR-8 ovarian; more than 25 µM in the assay on PC-3 prostate. In addition, the TGI in the assay with TK-10 renal and in the assay with UACC-62 melanoma was more than 25 µM throughout.

Consider `COc1ccc2c(c1)CC[C@@H]1[C@@H]2CC[C@]2(C)c3c(cc(C(=O)c4ccccc4)c4sccc34)C[C@@H]12`, for which the GI50 in the assay with K-562 leukemia was more than 100 µM; in the assay on MDA-MB-231 breast it was more than 100 µM; in the assay with NCI-H460 lung, more than 100 µM; in the assay with OVCAR-3 ovarian, more than 100 µM; with OVCAR-4 ovarian, 76.8 µM; in the assay with OVCAR-8 ovarian, more than 100 µM. Besides, the GI50 is 38.1 µM in the assay on PC-3 prostate, more than 100 µM in the assay with TK-10 renal and more than 100 µM in the assay with UACC-62 melanoma. Moreover, the TGI in the assay with K-562 leukemia, in the assay on MDA-MB-231 breast, in the assay on NCI-H460 lung, in the assay with OVCAR-3 ovarian, with OVCAR-4 ovarian and in the assay on OVCAR-8 ovarian was more than 100 µM in each case. Moreover, the TGI in the assay on PC-3 prostate, in the assay on TK-10 renal and with UACC-62 melanoma was more than 100 µM throughout.

For `O=C(Nc1ccc(Cl)cc1Cl)/C(Cl)=C1/Sc2ccccc2NC1=O`, the TGI in the assay on K-562 leukemia, in the assay on NCI-H460 lung, with OVCAR-4 ovarian, with OVCAR-8 ovarian, in the assay on TK-10 renal and in the assay with UACC-62 melanoma was more than 100 µM each time.

Take `O=C(CCc1cc(-c2ccco2)n(-c2ccc([N+](=O)[O-])cc2[N+](=O)[O-])n1)Nc1ccccc1`: the TGI with K-562 leukemia, in the assay on NCI-H460 lung, in the assay with OVCAR-4 ovarian, in the assay on OVCAR-8 ovarian and in the assay with UACC-62 melanoma was more than 100 µM each time.

Consider `FC(F)(F)c1ccccc1C=NC12CC3CC(CC(C3)C1)C2`, for which the TGI in the assay on K-562 leukemia, with NCI-H460 lung, in the assay on OVCAR-3 ovarian, in the assay with OVCAR-4 ovarian, with OVCAR-8 ovarian and in the assay on TK-10 renal was more than 100 µM throughout.

Consider `C[C@H]1[C@H](C)CC[C@]2(C(=O)O)CC[C@]3(C)C(=CC[C@@H]4[C@@]5(C)CC[C@H](OC(=O)/C=C\c6ccc(O)cc6)C(C)(C)[C@@H]5CC[C@]43C)[C@H]12`, for which the GI50 in the assay with MDA-MB-231 breast was 2.55 µM; with NCI-H460 lung it was 2.23 µM; in the assay on OVCAR-3 ovarian it was 3.05 µM; with OVCAR-4 ovarian, 10.6 µM; in the assay on OVCAR-8 ovarian it was 2.6 µM; in the assay on TK-10 renal it was 1.15 µM. Moreover, the GI50 in the assay on UACC-62 melanoma is 10.9 µM. In addition, the TGI is 13.5 µM in the assay with MDA-MB-231 breast; 10.9 µM in the assay on NCI-H460 lung; 21.2 µM in the assay with OVCAR-3 ovarian; 28.8 µM in the assay on OVCAR-4 ovarian; 9.1 µM in the assay on OVCAR-8 ovarian; 4.66 µM with TK-10 renal. Further, the TGI in the assay with UACC-62 melanoma is 22.8 µM.

Take `[O-][N+]1=C(c2ccccc2)COc2ccccc21`: the TGI in the assay on K-562 leukemia, in the assay on NCI-H460 lung, in the assay with OVCAR-3 ovarian, in the assay with OVCAR-4 ovarian, in the assay on OVCAR-8 ovarian and in the assay on TK-10 renal was more than 100 µM in each case. The molecule also came in with a TGI in the assay with UACC-62 melanoma of more than 100 µM.

`C=C1CCC2C(C)(CO)C(O)CCC2(C)C1CC(O)C1=CCOC1=O` (configuration not stated): the TGI was more than 100 µM in the assay on K-562 leukemia; more than 100 µM in the assay on NCI-H460 lung; 58.9 µM in the assay on OVCAR-3 ovarian; more than 100 µM with OVCAR-4 ovarian; more than 100 µM with OVCAR-8 ovarian; more than 100 µM with TK-10 renal. Further, the TGI in the assay on UACC-62 melanoma is more than 100 µM.

On to `O=CN/C=C/c1ccccc1O`, for which the TGI in the assay on K-562 leukemia was more than 31.6 µM; in the assay on NCI-H460 lung it was more than 100 µM; in the assay with OVCAR-3 ovarian, more than 100 µM; with OVCAR-4 ovarian it was more than 100 µM; with OVCAR-8 ovarian, more than 100 µM; in the assay with TK-10 renal, more than 100 µM. This molecule also showed a TGI with UACC-62 melanoma of more than 100 µM.

As for `O=C1CC23CC(=O)CC2(C1)c1ccccc1C3=O` (configuration not stated), the TGI in the assay with K-562 leukemia, in the assay on NCI-H460 lung, in the assay with OVCAR-3 ovarian, with OVCAR-8 ovarian, with TK-10 renal and in the assay on UACC-62 melanoma was more than 100 µM each time.

For the molecule `Cc1ccc(C2CC(c3cccc(Nc4ccncc4)c3)=NN2c2ccc(Cl)cc2)cc1` (configuration not stated), the GI50 was 1.84 µM with K-562 leukemia; 1.41 µM with MDA-MB-231 breast; 1.72 µM in the assay on NCI-H460 lung; 1.69 µM in the assay on OVCAR-3 ovarian; 1.69 µM in the assay with OVCAR-4 ovarian; 1.59 µM in the assay on PC-3 prostate. The values for the GI50 in the assay with TK-10 renal and in the assay with UACC-62 melanoma were 1.78 µM and 1.72 µM, respectively. The TGI amounted to 4.46 µM with K-562 leukemia; 2.78 µM with MDA-MB-231 breast; 3.34 µM with NCI-H460 lung; 3.06 µM in the assay on OVCAR-3 ovarian; 3.35 µM in the assay with OVCAR-4 ovarian; 3.08 µM with PC-3 prostate. The TGI with TK-10 renal stood at 3.35 µM; in the assay with UACC-62 melanoma, 3.14 µM.

For `Cc1ccc(S(=O)(=O)NC(=O)Nc2nc(Cl)cc(Cl)n2)cc1`, the TGI in the assay on K-562 leukemia, with NCI-H460 lung, with OVCAR-3 ovarian, in the assay on OVCAR-4 ovarian, with OVCAR-8 ovarian and in the assay with TK-10 renal was more than 100 µM in each case. This molecule registered a TGI with UACC-62 melanoma of more than 100 µM.

Values taken from PubChem BioAssay (NCI).
